In US9556153B1, “JAK1 inhibitors” (Eli Lilly and Company, priority 2015, dated 2017):

Biological target: T1, JAK3 (Homo sapiens, UniProt P52333)
T1 construct: purchased Invitrogen
T1 sequence (P52333 1-1124): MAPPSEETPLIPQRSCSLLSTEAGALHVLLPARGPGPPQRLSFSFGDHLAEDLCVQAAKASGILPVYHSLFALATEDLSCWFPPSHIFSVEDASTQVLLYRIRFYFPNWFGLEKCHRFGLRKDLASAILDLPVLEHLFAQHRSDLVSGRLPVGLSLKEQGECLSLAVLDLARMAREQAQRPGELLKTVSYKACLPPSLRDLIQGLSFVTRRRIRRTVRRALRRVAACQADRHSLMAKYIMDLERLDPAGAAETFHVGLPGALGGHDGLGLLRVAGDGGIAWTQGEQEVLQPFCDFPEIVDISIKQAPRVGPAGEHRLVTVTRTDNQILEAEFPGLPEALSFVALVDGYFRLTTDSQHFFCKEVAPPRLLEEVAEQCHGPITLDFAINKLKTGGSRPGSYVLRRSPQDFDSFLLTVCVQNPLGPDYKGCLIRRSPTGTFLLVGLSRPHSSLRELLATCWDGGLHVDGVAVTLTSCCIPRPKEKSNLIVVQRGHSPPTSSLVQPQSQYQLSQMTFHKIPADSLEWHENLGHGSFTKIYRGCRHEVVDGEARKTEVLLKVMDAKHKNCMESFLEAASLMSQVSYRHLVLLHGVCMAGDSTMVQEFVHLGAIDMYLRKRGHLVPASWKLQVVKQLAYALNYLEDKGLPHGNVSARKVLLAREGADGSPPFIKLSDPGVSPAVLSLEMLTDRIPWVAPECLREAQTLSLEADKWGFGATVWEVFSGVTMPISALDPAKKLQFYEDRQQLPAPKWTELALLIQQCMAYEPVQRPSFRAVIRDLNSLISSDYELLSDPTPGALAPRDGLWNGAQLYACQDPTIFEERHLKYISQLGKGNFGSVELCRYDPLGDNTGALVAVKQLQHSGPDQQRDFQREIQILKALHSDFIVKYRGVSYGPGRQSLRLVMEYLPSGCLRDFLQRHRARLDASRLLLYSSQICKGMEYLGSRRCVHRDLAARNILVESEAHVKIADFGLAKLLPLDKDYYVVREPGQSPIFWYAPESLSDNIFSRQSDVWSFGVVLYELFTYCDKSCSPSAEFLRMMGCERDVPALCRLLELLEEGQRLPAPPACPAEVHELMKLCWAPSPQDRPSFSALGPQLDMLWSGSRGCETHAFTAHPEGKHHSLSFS
Assay: JAK LanthaScreen Kinase Assay (TR-FRET), JAK3 in vitro enzyme assay
Assay type: biochemical
Conditions: ATP 20.0 μM; n=6
Excerpt: JAK1, JAK2 and JAK3 In Vitro Enzyme Assays
The JAK LanthaScreen™ Kinase Assay (Invitrogen) is used to determine the ability of test compounds to inhibit JAK1, JAK2 and JAK3 kinase activity. These are TR-FRET assay formats that use long-lifetime terbium labeled antibody as the donor species and GFP-STAT1 as the acceptor species. Use the TR-FRET ratio to monitor JAK kinase activity where an increase in phosphorylation of the GFP-STAT1 results in an increase in the TR-FRET ratio. Perform the kinase reaction using a 12.5 μl reaction volume in shallow black 384-well Proxiplate. Add reagents to obtain final reaction conditions of […] HEPES pH, 1.76 mM Triton X-100, ATP (20.0 μM for JAK1 and JAK3 or 5 μM for JAK2) enzyme assays, 10.0 mM MgCl2, 1 mM EGTA and 0.01% Brij-35, 0.05 mM GFP-STAT1, 14 nM JAK1 enzyme for JAK1, 1.0 nM for JAK2 or 2.5 nM for JAK3 enzyme assays, and 4% DMSO and serial dilutions of test compound (diluted 1:3 from 20,000 to 1 nM). Following ATP/GFP-STAT1 addition, centrifuge the assay plates for 1 minute at 1000 revolutions per minute (RPM). Allow the plates to incubate at RT for 60 minutes and then add 12.5 μl of a stopping buffer containing 20 mM EDTA, 2 nM Terbium-anti-phosphorylated Signal Transducers and Activators of Transcription [phosphorylation Tyrosine 701 amino acid] […]

IC50: 1.91 ± 0.786 µM
SMILES: Cc1cc(Nc2cc(O[C@H]3CC[C@@H](NC[C@@H](O)C(F)(F)F)CC3)cc3c2ncn3C)nn1C [Example 1, (2R)-3-{[cis-4-({4-[(1,5-Dimethyl-1H-pyrazol-3-yl)amino]-1-methyl-1H-benzimidazol-6-yl}oxy)cyclohexyl]amino}-1,1,1-trifluoropropan-2-ol]
